Data reported in EP4796538A1, “NOVEL QUINOXALINE COMPOUNDS, MANUFACTURING METHOD THEREOF, AND USES THEREOF” (Gachon University of Industry-Academic Cooperation …, priority 2023, dated 2025).
Like-named read-outs stand apart in the source and are kept apart here.

How the values were obtained:
RET(G810R) = target: T1, RET(G810R) (Homo sapiens, UniProt P07949, G810R); experiment: Kinase panel inhibition, radiolabeled [γ-33P] ATP (Reaction Biology Corp); format: biochemical; conditions: compound at 0.1 uM; ATP 10 µM; read-out: % Enzyme Activity (relative to DMSO controls) G810R
T1 construct: purchased Reaction Biology Corp

RET-CCDC6 (PTC1) = target: T2, RET-CCDC6 (PTC1) (Homo sapiens, UniProt P07949); experiment: as above; format: biochemical; conditions: compound at 10 uM, ATP 1 µM
T2 construct: purchased Reaction Biology Corp

RET (G810S/M918T) = target: T3, RET (G810S/M918T) (Homo sapiens, UniProt P07949, G810S/M918T); experiment: as above; format: biochemical; conditions: compound at 10 uM, ATP 1 µM
T3 construct: purchased Reaction Biology Corp

BaF3-RET(V804M) = experiment: Cell proliferation inhibition (GI50), Cell Counting Kit-8, Ba/F3 cell line; format: cell-based, rodent; conditions: Mus musculus, read-out: GI50 of BaF3-RET(V804M)
Experimental: To evaluate the inhibitory activity of the compounds represented by Formula I or Formula IV according to the present invention against RET mutation-driven cell growth in the Ba/F3 cell line and against cell growth in the non-small cell lung cancer cell line A-549, the following experiment was performed.
Each cell line was seeded in a 96-well plate at 1×10^4 cells/90 µL/well, and 10 µL/well of culture medium containing each example and intermediate compound or DMSO control at 9 concentrations (1 nM to 100 µM) prepared by 3-fold serial dilutions was added to achieve a final concentration of 0 to 100 µM, followed by incubation for 72 hours in a 37°C, 5% CO2 incubator. After 72 hours of incubation, the compound-treated plates were removed, and Cell Counting Kit-8 solution was added at 10 µL/well and mixed well. The plates were then incubated for 2 hours in a CO2 incubator at 37°C, and the absorbance was measured at 450 nm using a microplate reader.
In addition, the data were expressed as a percentage relative to vehicle-treated cells, and GI50 values were calculated using GraphPad Prism 8.0 (GraphPad Software Inc., San Diego), and the results are shown in Table 8 below. As a control compound, ponatinib, a known RET inhibitor, was treated to calculate the GI50 values.

A-549 = experiment: Cell proliferation inhibition, Cell Counting Kit-8, non-small cell lung cancer cell line; format: cell-based; conditions: A-549 cell line; 72 hours incubation; test concentration not given
RET(V804M) = target: T4, RET(V804M) (Homo sapiens, UniProt P07949, V804M); experiment: Kinase panel inhibition, radiolabeled [γ-33P] ATP (Reaction Biology Corp); format: biochemical; conditions: compound at 0.1 uM; ATP 10 µM; read-out: % Enzyme Activity (relative to DMSO controls) V804M
T4 construct: purchased Reaction Biology Corp

RET(V804M)-KIF5B = target: T5, RET(V804M)-KIF5B (Homo sapiens, UniProt P07949, V804M); experiment: as above; format: biochemical; conditions: compound at 0.1 uM; ATP 10 µM; read-out: % Enzyme Activity (relative to DMSO controls) RET (V804M )-KIF5B
T5 sequence (P07949 713-1114 V804M): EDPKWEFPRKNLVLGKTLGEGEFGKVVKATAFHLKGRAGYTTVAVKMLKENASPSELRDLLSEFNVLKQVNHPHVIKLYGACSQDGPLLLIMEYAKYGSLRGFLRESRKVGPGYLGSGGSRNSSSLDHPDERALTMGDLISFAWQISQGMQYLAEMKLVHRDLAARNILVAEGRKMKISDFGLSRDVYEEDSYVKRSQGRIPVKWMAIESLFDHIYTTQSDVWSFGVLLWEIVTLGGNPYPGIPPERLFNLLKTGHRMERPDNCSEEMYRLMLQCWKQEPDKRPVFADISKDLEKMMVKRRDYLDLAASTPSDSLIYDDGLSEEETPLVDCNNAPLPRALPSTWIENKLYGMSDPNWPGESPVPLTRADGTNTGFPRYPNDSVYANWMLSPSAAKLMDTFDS
T5 sequence (P33176 2-575 partner): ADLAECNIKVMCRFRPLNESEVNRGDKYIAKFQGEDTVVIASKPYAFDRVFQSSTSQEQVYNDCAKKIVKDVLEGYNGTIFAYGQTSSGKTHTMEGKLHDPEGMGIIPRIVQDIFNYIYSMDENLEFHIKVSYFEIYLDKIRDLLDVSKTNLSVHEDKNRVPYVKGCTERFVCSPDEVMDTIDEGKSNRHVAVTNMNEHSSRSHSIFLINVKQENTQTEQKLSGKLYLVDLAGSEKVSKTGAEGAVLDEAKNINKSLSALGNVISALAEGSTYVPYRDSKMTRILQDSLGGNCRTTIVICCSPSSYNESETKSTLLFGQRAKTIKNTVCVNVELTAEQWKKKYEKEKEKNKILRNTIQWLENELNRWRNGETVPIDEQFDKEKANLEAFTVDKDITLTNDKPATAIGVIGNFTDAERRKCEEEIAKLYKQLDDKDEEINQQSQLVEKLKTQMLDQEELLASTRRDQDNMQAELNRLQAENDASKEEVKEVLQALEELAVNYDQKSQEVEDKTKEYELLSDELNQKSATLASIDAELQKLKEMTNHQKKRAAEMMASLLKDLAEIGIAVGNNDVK

[1] = Data 1, read-out: % Enzyme Activity (relative to DMSO controls) RET-CCDC6 (PTC1) Data 1
[2] = Data 2, read-out: % Enzyme Activity (relative to DMSO controls) RET-CCDC6 (PTC1) Data 2
[3] = Data 1, read-out: % Enzyme Activity (relative to DMSO controls) RET (G810S/M918T) Data 1
[4] = Data 2, read-out: % Enzyme Activity (relative to DMSO controls) RET (G810S/M918T) Data 2
[5] = BaF3, 72 hours incubation, Cell Counting Kit-8

T3 sequence (P07949 29-1114 G810S/M918T): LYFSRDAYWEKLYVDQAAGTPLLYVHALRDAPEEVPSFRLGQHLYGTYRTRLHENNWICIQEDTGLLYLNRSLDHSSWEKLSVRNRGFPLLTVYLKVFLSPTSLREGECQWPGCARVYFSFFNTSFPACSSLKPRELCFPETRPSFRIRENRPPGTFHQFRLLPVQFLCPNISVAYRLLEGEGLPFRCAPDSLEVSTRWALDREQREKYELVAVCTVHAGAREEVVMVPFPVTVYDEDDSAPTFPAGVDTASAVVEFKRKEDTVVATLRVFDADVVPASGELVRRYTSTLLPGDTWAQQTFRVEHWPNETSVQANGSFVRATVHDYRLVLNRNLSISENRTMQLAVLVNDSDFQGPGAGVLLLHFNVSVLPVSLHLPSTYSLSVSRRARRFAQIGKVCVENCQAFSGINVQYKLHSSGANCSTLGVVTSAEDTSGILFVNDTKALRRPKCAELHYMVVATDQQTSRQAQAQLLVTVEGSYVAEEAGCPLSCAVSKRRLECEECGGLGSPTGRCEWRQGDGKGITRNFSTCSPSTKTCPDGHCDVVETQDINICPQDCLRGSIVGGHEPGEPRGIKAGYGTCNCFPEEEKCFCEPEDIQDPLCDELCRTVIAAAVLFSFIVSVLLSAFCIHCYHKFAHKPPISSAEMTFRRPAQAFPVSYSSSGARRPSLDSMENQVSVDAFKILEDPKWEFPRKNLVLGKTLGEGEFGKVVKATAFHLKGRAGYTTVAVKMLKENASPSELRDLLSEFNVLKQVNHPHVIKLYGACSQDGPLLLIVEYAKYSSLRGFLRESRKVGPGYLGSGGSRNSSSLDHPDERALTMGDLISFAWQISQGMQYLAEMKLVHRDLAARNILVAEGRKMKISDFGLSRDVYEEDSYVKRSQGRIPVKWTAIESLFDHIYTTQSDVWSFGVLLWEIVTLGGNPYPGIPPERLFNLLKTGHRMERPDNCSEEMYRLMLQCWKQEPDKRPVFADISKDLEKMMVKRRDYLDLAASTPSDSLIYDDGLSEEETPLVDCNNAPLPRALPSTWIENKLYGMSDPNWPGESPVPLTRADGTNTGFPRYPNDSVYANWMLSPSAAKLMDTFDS
T1 sequence (P07949 29-1114 G810R): as the sequence (P07949 29-1114 G810S/M918T) above, with S782R, T890M counted along it
T4 sequence (P07949 29-1114 V804M): as the sequence (P07949 29-1114 G810S/M918T) above, with V776M, S782G, T890M counted along it
T2 sequence (P07949 whole entry, looked up): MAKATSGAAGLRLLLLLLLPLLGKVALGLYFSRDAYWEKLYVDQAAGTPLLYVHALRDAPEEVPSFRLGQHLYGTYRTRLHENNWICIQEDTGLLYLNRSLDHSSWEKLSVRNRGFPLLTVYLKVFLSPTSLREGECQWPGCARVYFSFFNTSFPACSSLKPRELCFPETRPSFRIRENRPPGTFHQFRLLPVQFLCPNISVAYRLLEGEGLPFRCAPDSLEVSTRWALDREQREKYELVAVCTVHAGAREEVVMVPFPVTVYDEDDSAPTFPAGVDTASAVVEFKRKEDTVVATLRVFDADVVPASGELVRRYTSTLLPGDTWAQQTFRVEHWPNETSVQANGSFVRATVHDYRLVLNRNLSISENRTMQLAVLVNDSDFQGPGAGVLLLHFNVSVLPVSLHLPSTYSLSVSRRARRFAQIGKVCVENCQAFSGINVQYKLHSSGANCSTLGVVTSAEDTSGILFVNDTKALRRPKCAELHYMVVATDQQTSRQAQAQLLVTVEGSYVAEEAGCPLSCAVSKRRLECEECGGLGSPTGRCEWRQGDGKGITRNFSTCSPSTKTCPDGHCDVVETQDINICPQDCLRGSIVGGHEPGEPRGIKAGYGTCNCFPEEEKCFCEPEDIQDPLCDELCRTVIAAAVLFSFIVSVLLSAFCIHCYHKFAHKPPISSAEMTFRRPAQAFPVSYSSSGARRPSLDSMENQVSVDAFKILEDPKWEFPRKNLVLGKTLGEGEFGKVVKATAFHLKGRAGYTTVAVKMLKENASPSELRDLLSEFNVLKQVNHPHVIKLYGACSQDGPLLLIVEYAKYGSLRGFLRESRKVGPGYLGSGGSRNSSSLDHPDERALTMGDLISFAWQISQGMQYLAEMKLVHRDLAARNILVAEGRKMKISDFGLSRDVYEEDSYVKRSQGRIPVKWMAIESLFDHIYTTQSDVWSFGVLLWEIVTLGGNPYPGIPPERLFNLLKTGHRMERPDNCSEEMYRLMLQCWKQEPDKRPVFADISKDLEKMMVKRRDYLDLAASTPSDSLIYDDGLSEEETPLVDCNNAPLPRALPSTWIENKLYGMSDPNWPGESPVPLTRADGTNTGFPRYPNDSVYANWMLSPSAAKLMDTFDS

| Compound | remaining activity at 0.1 µM (RET(G810R)) | remaining activity at 10 µM (RET-CCDC6 (PTC1); [1]) | remaining activity at 10 µM (RET-CCDC6 (PTC1); [2]) | remaining activity at 10 µM (RET (G810S/M918T); [3]) | remaining activity at 10 µM (RET (G810S/M918T); [4]) | GI50 (BaF3-RET(V804M); [5]) | remaining activity at 0.1 µM (RET(V804M)) | remaining activity at 0.1 µM (RET(V804M)-KIF5B) | Cell Proliferation (% of control) (A-549) | GI50 (BaF3-RET(V804M); BaF3, 72 h) |
| --- | --- | --- | --- | --- | --- | --- | --- | --- | --- | --- |
| CCNc1cc(C#CCN2CCOCC2)c2nccnc2c1 [Example 31, N-ethyl-8-(3-morpholinoprop-1-yn-1-yl)quinoxalin-6-amine] | 98.5% | 14.8% | 15.4% | 61.7% | 61.2% | – | 105% | 109% | 51.88% | – |
| CCNc1cc(Nc2cc(C)[nH]n2)c2nccnc2c1 [Example 32, N7-ethyl-N5-(5-methyl-1H-pyrazol-3-yl)quinoxaline-5,7-diamine] | 96.6% | 5.39% | 4.58% | 41.9% | 40.6% | – | 88.7% | 85.9% | 92.91% | – |
| Cc1ccc(C(=O)Nc2ccc(CN3CCN(C)CC3)c(C(F)(F)F)c2)cc1C#Cc1cnc2cccnn12 [Ponatinib, ponatinib, reference compound] | – | – | – | – | – | – | – | – | -1.99% | 115 nM |

Further lines, with some results ahead:

| remaining activity at 0.1 µM (RET(G810R)) | remaining activity at 10 µM (RET-CCDC6 (PTC1); [1]) | remaining activity at 10 µM (RET-CCDC6 (PTC1); [2]) | remaining activity at 10 µM (RET (G810S/M918T); [3]) | remaining activity at 10 µM (RET (G810S/M918T); [4]) | GI50 (BaF3-RET(V804M); [5]) | remaining activity at 0.1 µM (RET(V804M)) | remaining activity at 0.1 µM (RET(V804M)-KIF5B) | Compound | Cell Proliferation (% of control) (A-549) | GI50 (BaF3-RET(V804M); BaF3, 72 h) |
| --- | --- | --- | --- | --- | --- | --- | --- | --- | --- | --- |
| 77.3% | 1.38% | 0.23% | 0.05% | -0.43% | 943 nM | – | – | CNc1cc(-c2ccc(N3CC(Oc4cccc(F)c4)C3)nc2)c2nccnc2c1 [Example 2, 8-(6-(3-(3-fluorophenoxy)azetidin-1-yl)pyridin-3-yl)-N-methylquinoxalin-6-amine] | 18.59% | – |
| 56% | 1.36% | 1.07% | -0.84% | -0.85% | 2120 nM | – | – | CNc1cc(-c2ccc(N3CC[C@H](NC(=O)c4ccccc4F)C3)nc2)c2nccnc2c1 [Example 11, (S)-2-fluoro-N-(1-(5-(7-(methylamino)quinoxalin-5-yl)pyridin-2-yl)pyrrolidin-3-yl)benzamide] | 20.80% | – |
| 59.9% | 1.25% | 1.01% | 2.65% | 0.69% | 1060 nM | 2.27% | 5.5% | CCNc1cc(-c2ccc(N3CC[C@H](NC(=O)c4ccccc4F)C3)nc2)c2nccnc2c1 [Example 12, (S)-N-(1-(5-(7-(ethylamino)quinoxalin-5-yl)pyridin-2-yl)pyrrolidin-3-yl)-2-fluorobenzamide] | 41.67% | – |
